Results reported in US20220054658A1, “CONJUGATES” (Transfection Holdings Limited, priority 2018, published 2022).
Entries after “also recorded” stand apart in the source; their conditions may differ.

How the values were obtained:
C. elegans = assay: Conjugate uptake in C. elegans (dye and praziquantel conjugates, fluorescence microscopy); type: in vivo, Caenorhabditis elegans; details: 50 μM; for viability of the nematodes: readings up to 72 h
Protocol: Nematode Growth Media (NGM) plates containing C. elegans were washed with 1.0-1.5 mL of standard M9 buffer and the washes were collected in an Eppendorf tube. The liquid containing the C. elegans was then spun for 1 min at room temperature at 10,000 rpm. The supernatant was removed, and fresh M9 buffer was added (500 μL) to generate a new stock solution of M9 buffer containing the C. elegans.
A C. elegans suspension (100 μL) was added a defined amount of M9 buffer (determined by the final desired concentration of compound to be tested: 399 μL in the case of the BODIPY tagged derivatives) contained within a separate Eppendorf tube. To this was then added a 25 mM solution of the compound in DMSO (1 μL). The resulting suspension was mixed using a vortex instrument.
The resulting mixture was incubated at room temperature for 2 to 4 h. in the dark (using aluminium foil to screen the tube, which was also stored in a cabinet).
Other samples were incubated overnight. Here, OP50 bacteria (3 μL) were added to the worms for feeding purposes, and the worms were kept in the dark at 20° C.
After the incubation, the tube contents were mixed gently by hand (typically by simple rotation of the tube), so as to achieve a homogenous suspension. A sample of the suspension (250 μL) was taken and mixed with M9 buffer (500 μL). The resulting suspension was placed in a centrifuge and spun at room temperature at 10,000 rpm for 1 min. The supernatant was removed, and the washing process was repeated twice more, each time using further quantities of fresh M9 buffer (500 μL each time). After the final washing sufficient supernatant was removed so as to leave a final sample volume of approximate 30 μL.
A 1.5% agarose solution in water was pre-warmed for 60 to 90 s. in a standard household style microwave (set to Power 4). Two drops of this solution was removed and placed on a glass slide. The glass slide was covered with a second glass slide. After 1 min., the slides were slid carefully apart, with the agarose remaining on one of the slides. Onto this slide was placed an aliquot of the final C. elegans solution (15 to 20 μL). To this was added a 20 mM sodium azide solution (5 μL) to inhibit nematode mobility. Vaseline was then placed around the agarose area before replacing the second slide. The slides were not pressed together.
The nematodes were then analysed using a Zeiss Axiskop 2 Plus microscope with a Hamamatsu Orca-ER (CA 742-95) camera. The images were resolved using OpenLab on a Mac operating system.
Compounds 1-11 were evaluated after 3 h and overnight incubation at a 50 μM concentration using the general uptake protocol described for C. elegans.
In order to compare the ability of a conjugate to improve the uptake of the drug praziquantel, two praziquantel derivatives were generated. Praziquantel was tagged with a BODIPY fluorescent tag (compound 12) and incorporated into a conjugate of the invention (compound 13). Compounds 12 and 13 were evaluated at a concentration of 50 μM using the C. elegans uptake protocol described above for compounds 1-11. Microscopic readings were taken after 3, 24 and 72 h.

L. passim strain PRA-403 = assay: Lotmaria passim parasite uptake test; type: cell-based; details: room temperature, 45 min; for uptake in L. passim (fluorescence intensity, microplate reader): 1 μM and 100 μM
Protocol: 100 mM stock solutions of BODIPY derivatives were prepared with dimethylsulfoxide (DMSO). L passim strain PRA-403 (ATCC) was cultured in modified medium for C. bombi (Tognazzo et al.). The parasite culture was centrifuged, supernatant was removed and 500 μL of L passim medium with compound (final concentration 500, 100, 10 or 1 μM for BODIPY derivatives) or DMSO (0.1%) control was added. Incubated for 45 min at room temperature.
Uptake tests were performed at 1 μM and 100 μM final concentration of CJ-BODIPY derivatives. After incubation at room temperature for 45 min, fluorescence intensities were evaluated using a microplate reader.

[1] = tested on: gastrointestinal system (crop, midgut and rectum) of adult honey bees; assay: Honey bee gut uptake test; set-up: species or system Apis mellifera; details: 100 μM, 33° C., 45 min
Protocol: Honey bee (A. mellifera) hives were obtained and allowed to feed ab libitum spring to autumn. During the winter period, pollen mixed with 50% (v/v) sucrose was added to the honey bee hives in order to provide sufficient food. Honey bees were dissected and gastrointestinal system was removed including the crop, midgut and rectum, and added immediately to 500 μL of the delivery vehicle to be tested sample diluted with PBS at 100 μM final concentration or DMSO (0.1%) control. The mixture was incubated for 45 min at 33° C.
The gastrointestinal system (crop, midgut and rectum) of adult honey bees was extracted, and incubated with derivatives 1, 2, 8 and 11 at 100 μM and 33° C. for 45 min.

Row | SMILES | uptake: location of fluorescence in C. elegans (C. elegans; 3 h incubation) | uptake: location of fluorescence in C. elegans (C. elegans; 20 h / overnight incubation) | uptake in L. passim (fluorescence intensity, microplate reader) (L. passim strain PRA-403) | uptake compared to other compounds (C. elegans; 3 h incubation) | uptake in L. passim (fluorescence microscopy) (L. passim strain PRA-403; 10 μM) | fluorescence in honey bee gut (crop, midgut, rectum) [1] | uptake: location of fluorescence in C. elegans (C. elegans; 24 h incubation) | uptake: location of fluorescence in C. elegans (C. elegans; 72 h incubation) | viability of the nematodes (C. elegans) | increase in uptake of compound 13 compared to compound 12 (C. elegans; 20 h incubation)
1 | CC1=CC(C)=[N+]2C1=Cc1ccc(CCCn3cc(CCNC(=O)/C=C\NC(=O)[C@H]4OC(C)(C)OCC4(C)C)nn3)n1[B-]2(F)F [Compound 4, (Z)—N-((((3-[4,4-Difluoro-5,7-dimethyl-4-bora-3a,4a-diaza-s-indacene-3-yl]propyl)-1H-1,2,3-triazol-4-yl)ethylamino)-3-oxoprop-1-enyl)-2,2,5,5-tetramethyl-1,3-dioxane-4-carboxamide] | traces of compound 4 were present in the gut cells of larval stages | fluorescence was detected in the pharynx and the gut cells of the larval stages as well as in the early stage of egg development | one of the lowest amounts of uptake | – | – | – | – | – | – | –
2 | CC1=CC(C)=[N+]2C1=Cc1ccc(CCCn3cc(CCNC(=O)/C=C\NC(=O)[C@H](O)C(C)(C)CO)nn3)n1[B-]2(F)F [Compound 6, (Z)—N-((((3-[4,4-Difluoro-5,7-dimethyl-4-bora-3a,4a-diaza-s-indacene-3-yl]propyl)-1H-1,2,3-triazol-4-yl)ethylamino)-3-oxoprop-1-enyl)-2,4-dihydroxy-3,3-dimethylbutanamide] | visible in the gut cells and gut lumen of larval stages and in a lesser extent in the pharynx; also recorded: In adults, fluorescence was located in the pharynx, gut lumen and gut cells; also recorded: Fluorescence was not observed in the embryos | fluorescence was present in the gut lumen and gut cells, and to a smaller degree in the pharynx of the larvae; also recorded: Fluorescence was also present in the pharynx, gut cells and gut lumen of the adults as well as in the early stages of egg development; also recorded: Fluorescence was not observed in the embryos | – | much lower degree than the enantiomeric analogue compound 8 | – | – | – | – | – | –
3 | CC1=CC(C)=[N+]2C1=Cc1ccc(CCCn3cc(CCNC(=O)/C=C\NC(=O)[C@H](O)C(C)(C)CO)nn3)n1[B-]2(F)F [Compound 8, (Z)—N-((((3-[4,4-Difluoro-5,7-dimethyl-4-bora-3a,4a-diaza-s-indacene-3-yl]propyl)-1H-1,2,3-triazol-4-yl)ethylamino)-3-oxoprop-1-enyl)-2,4-dihydroxy-3,3-dimethylbutanamide] | visible in the gut cells and gut lumen and to a lesser extent into the pharynx of larvae; also recorded: In adults, fluorescence was observed in the pharynx, the gut lumen, the gut cells, and eggs | fluorescence was present in the pharynx, gut lumen and gut cells of the larvae; also recorded: In adults, fluorescence was detected in the pharynx, gut lumen and gut cells, but not in the embryos | relatively low uptake | second largest uptake observed compared to compounds 1 to 7 | displayed fluorescence surrounding the cell membrane but not in the cytoplasm | slight fluorescence in midgut and rectum, but none in the crop | – | – | – | –
4 | CC1=CC(C)=[N+]2C1=Cc1ccc(CCC(=O)N3CC(=O)N4CCc5ccccc5C4C3)n1[B-]2(F)F (stereo not drawn) [Compound 12, 5,5-Difluoro-1,3-dimethyl-7-(3-oxo-3-(4-oxo-3,4,6,7-tetrahydro-1-pyrazino[2,1-a]isoquinolin 2(11 bH)-yl)propyl)-5H-dipyrrolo[1,2-c:2′,1′-f][1,3,2]diazaborinin-4-ium-5-uide, reference compound] | weakly up taken up into the pharynx and gut cells of the C. elegans larvae, as well as by adult nematodes mainly in the gut cells with lesser amount in the pharynx | – | – | – | – | – | the larva showed no increased uptake, with very minor amounts of compound 12 located in the pharynx and the gut cells | only the gut cells of the larvae showed the presence of small amounts of fluorescence; also recorded: In the case of the adult stages, fluorescence was visible in the gut lumen, gut cells and pharynx | remained viable with no apparent detrimental effect | –
5 | CC1(C)OCC(C)(C)[C@H](C(=O)N/C=C/C(=O)NCCc2cn(CCCC3=[N+]4C(=Cc5ccc(CCC(=O)N6CC(=O)N7CCc8ccccc8C7C6)n5[B-]4(F)F)C=C3)nn2)O1 (stereo partly drawn) [Compound 13, 5,5-Difluoro-7-(3-oxo-3-(4-oxo-3,4,6,7-tetrahydro-1H-pyrazino[2,1-a]isoquinolin-2(11bH)-yl)propyl)-3-(3-(4-(2-((E)-3-((R)-2,2,5,5-tetramethyl-1,3-dioxane-4-carboxamido)acrylamido)ethyl)-1H-1,2,3-triazol-1-yl)propyl)-5H-dipyrrolo[1,—2-c:2′,1′-f][1,3,2]diazaborinin-4-ium-5-uide] | strongly located in the pharynx, gut cells and gut lumen of the larval stages; also recorded: In the adult nematodes, compound 13 was strongly located in the pharynx, gut cells and gut lumen, whilst not visible in the embryos | – | – | – | – | – | strongly observed in the pharynx, gut cells and gut lumen of the larva | still strongly visible in the pharynx, gut lumen and get cells of the larvae; also recorded: In the case of the adult nematodes, compound 13 was strongly visible in the pharynx and in the gut lumen, as well as in the embryos and eggs | remained viable with no apparent detrimental effect | threefold increase
